Like-named read-outs stand apart in the source and are kept apart here.

The test system of data set [1] is rats with AlCl3-induced AD. Description: Morris water maze test in rats with AlCl3-induced AD. Format: in vivo, SD rats. To be noted: 6 mg/kg intramuscular weekly, 8 weeks. As to the method: (§1) The study used 60 male SD rats (BioLASCO, Taiwan; average age, 8 weeks). The study was approved by the Institutional Animal Care and Use Committee (No. 20,190,497) of National Taiwan University. CLB.HCl (Sigma-Aldrich C5423; Lot# BCBQ2163V) powder was stored at 4 °C and diluted in sterile 0.9% saline to a concentration of 20 µM based on the free base before injection. AlCl3 (7446-70-0, Sigma-Aldrich) was dissolved in normal saline before injection, and 70 mg/kg body weight of AlCl3 was administered intraperitoneally (i.p.) three times weekly for 8 weeks as previously described. […] After 8 weeks, several animal behavioral tests, histological staining, pharmacokinetics, and biochemical analyses were performed.
This study used a circular pool partitioned into four quadrants, one of which contained an underwater platform. […] After four training sessions, the time taken by the rats to reach the escape platform was measured using EthoVision software (Noldus Information Technology, Wageningen, Netherlands). […] To evaluate spatial memory, the time taken by each rat to reach the platform from the starting position was recorded. On the contrary, working memory was assessed by determining the amount of time spent by the rat in the same quadrant (up to 120 s) but without a platform. The time spent in the quadrant without a platform was also recorded.

In a further data set the test system is L929 cell line. As to the kind of experiment: Biocompatibility by WST-1 assay (ISO 10993). In kind it is cell-based. As to the method:
The extracted supernatants were collected for subsequent experiments. Zinc diethyldithiocarbamate was used as a positive control and aluminum oxide was used as a negative control. After adding the WST-1 solution to the wells, the plate was incubated for 2 h, and the absorbance of each well was measured at 450 nm using a spectrophotometric plate reader (ELISA reader, Tecan Sunrise, Switzerland). The percentage of viable cells was calculated using the following equation:
Cell viability (%) = ((OD experiment - OD background) ×100)/ ((OD control - OD background))…(2).
On the technique in general: Tetrazolium dyes change colour on reduction, which living cells bring about.

For a further data set, the target named is T1, Aβ42 peptides (Homo sapiens, UniProt P05067).
T1 construct: Aβ42 peptides were obtained from Peptide Institute, Inc; purchased Peptide Institute, Inc. (ASIA BIOSCIENCE Co., Ltd., Taiwan)
T1 sequence (P05067 672-713 limits assumed): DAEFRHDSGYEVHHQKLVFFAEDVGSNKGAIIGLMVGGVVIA
Description: Thioflavin T fluorescence assay and TEM of Aβ aggregation. In kind it is biochemical. As to the method: Aβ42 peptides were obtained from Peptide Institute, Inc. (ASIA BIOSCIENCE Co., Ltd., Taiwan) and dissolved in hexafluoro-2-propanol (HFIP; Oakwood Products, Estill, SC, USA) to a final concentration of 1 mM for monomerization. The resulting solution was stored at − 80 °C. The monomerized peptides were resuspended in anhydrous DMSO (catalog number D-2650, Sigma) and diluted to a concentration of 100 µM using Dulbecco’s modified Eagle’s medium (DMEM, Sigma) before use. Aβ fibrils were formed by shaking the solution at 37 °C for 3 days. The morphology of the fibrils, with or without CLB incubation for 3 days, was observed using transmission electron microscopy (TEM). Samples were incubated with 1% uranyl acetate for 1 min before TEM.
The progression of amyloid β aggregation was tracked using thioflavin T (ThT), a fluorescent dye originally used to stain amyloid fibrils in histological samples. […] ThT fluorescence was measured at 25 °C using a spectrophotometric plate reader (ELISA reader, Tecan Sunrise, Switzerland) with an excitation filter at 450 nm and an emission filter at 482 nm, the computation of intensity was performed through the utilization of SoftMax Pro 7.0 software (Molecular Devices, CA, USA). After ThT binds to β-sheet aggregate structures, such as amyloid fibrils, its fluorescence emission changes, allowing the monitoring of amyloid β aggregation.

In the next data set the test system is BV-2 microglial cells. As to the kind of experiment: Western blot analysis of LPS-induced inflammation. In kind it is cell-based. As for the experimental part: LPS (L2880, Sigma) was dissolved in normal saline before injection. BV2 cells were seeded in 6-well plates at a density of 10^5 cells/well and cultured for 1 day to allow full adhesion. […] Subsequently, LPS (1 µg/mL) was added to induce inflammation for 24 h. The medium was then removed and the BV2 cells were washed three times with PBS. The cells were then lysed in 100 µL of ice-cold radioimmunoprecipitation assay buffer, and protein concentrations were quantified using the Bio-Rad protein assay. Equal amounts of proteins were electrophoresed on a 10% sodium dodecyl sulfate-polyacrylamide gel. The separated proteins were transferred onto nitrocellulose membranes and incubated with primary monoclonal mouse antibodies (BIOTOOLS Co., Ltd., Taipei, Taiwan) against IL-6 (1:1000), IL-1β (1:1000), TNF-α (1:1000), and β-actin (1:5000) overnight at 4 °C. Following incubation with the appropriate secondary antibody, the signals were analyzed using an imaging system (Bio-Rad).
In general terms: A western blot detects proteins with antibodies after separation by electrophoresis.

In data set [2] the test system is rats with AlCl3-induced AD. As to the kind of experiment: Western blot of brain tissue for synapsin-1, synaptophysin, BACE1 and TNF-α. Format: in vivo, SD rats. To be noted: compared with the AD group. As to the method: as §1
A short description of data set [3]: Plasma pharmacokinetics of CLB by LC-MS/MS after intramuscular administration. In kind it is in vivo, SD rats. As for the experimental part:
as §1
LC-MS/MS was used to perform quantitative analysis using an LCMS8030 system (Shimadzu, Japan). We used the multiple reaction monitoring mode for mass spectrometric analysis, and the MS/MS parameters were optimized by flow injection analysis. Plasma samples were prepared using simple protein precipitation in methanol. The specificity of the method was tested by analyzing blank rat plasma, blank rat plasma spiked with clenbuterol-d9 (internal standard, IS), and plasma samples collected after CLB administration. A Thermo Hypersil Gold aQ C18 column (50 mm × 2.1 mm) with a particle size of 1.9 μm was used for separation. The mobile phase gradient consisted of (A) 2% methanol in pure water + 0.1% formic acid, and (B) methanol with 0.1% formic acid. The gradient elution was as follows: 30% B (0 min), 30% B (0.5 min), 98% B (2.5 min), 98% B (3.5 min), 30% B (4 min), and 30% B (5.5 min) at a flow rate of 300 µL/min, with a total run time of […]. A calibration curve was constructed using the plasma concentration of the quality control (QC) sample and the peak area ratio (y) of the QC sample to the IS. The linear calibration curves of CLB ranged from 0.5 to 200 ng/mL, with correlation coefficients over 0.99952. The injection volume of the final solution was 20 µL for the serum specimens. To evaluate the accuracy, precision, and extraction recovery of the assay, three sequential assays were performed with six replicates of QC samples (5, 50, and 500 ng/mL CLB) for each assay. QC samples were prepared from normal blank rat plasma at concentrations of 0.5, 2, 5, 20, 50, 200, and 500 ng/mL of CLB. The concentrations of the QC samples were calculated based on the calibration curve and compared with those of the control samples with the same concentration. For the brain sample homogenization procedures, a brain sample and an equivalent weight of 25% plasma solution were mixed in a 50 mL centrifuge tube and homogenized completely at 30,000 rpm on ice. The resulting homogenized solution was centrifuged and the supernatant was collected as a test sample. The test sample was filtered through a 0.2 μm GHP filter, and 200 µL of the sample mixture was transferred into a new 96-well 1 mL round collection plate and sealed. Finally, the samples were placed in an autosampler to be injected.

Data set [4] is described as follows: Drug content in brain tissues by LC/MS/MS. Format: in vivo, SD rats. To be noted: male, SD, 6 mg/kg; rat brain homogenate, intramuscular injection; read-out: Concentration in brain tissues 24 h after injection. As for the experimental part: as §1
LC-MS/MS was used to perform quantitative analysis using an LCMS8030 system (Shimadzu, Japan). We used the multiple reaction monitoring mode for mass spectrometric analysis, and the MS/MS parameters were optimized by flow injection analysis. Plasma samples were prepared using simple protein precipitation in methanol. The specificity of the method was tested by analyzing blank rat plasma, blank rat plasma spiked with clenbuterol-d9 (internal standard, IS), and plasma samples collected after CLB administration. […] The concentrations of the QC samples were calculated based on the calibration curve and compared with those of the control samples with the same concentration. […]

A further data set has as its system N2a cell line. As to the kind of experiment: N2a cell viability versus concentration (IC50). In kind it is cell-based. To be noted: Mus musculus; N2a cells; called predicted IC50; read-out: IC50 (concentration at which 50% cell survival was observed).
Setting [5] is: male, SD, im, rat plasma, 6 mg/kg intramuscular.

`CC(C)(C)NCC(O)c1cc(Cl)c(N)c(Cl)c1` (centres unmarked) [CLB, Clenbuterol]: the “time to locate the escape platform (MWM)” value in data set [1] is “did not exhibit a performance similar to that of the SHAP-CLB group”. The “cell viability / cytotoxicity” value in the data set on L929 cell line (L929 cells, day 3, WST-1, extract medium) is on record as “no notable disparities in cell viability”. For the same compound, the “effect on Aβ aggregates (ThT fluorescence)” value on Aβ42 peptides (10 µM Aβ incubated with 20 µM CLB) was “extensive fragmentation”. In addition, the “effect on Aβ fibrils (TEM)” value on Aβ42 peptides (Aβ and CLB co-incubated for 3 days) was “disassembled amyloid plaques”. For the same compound, the “protein expression levels of IL-1β, IL-6, and TNF-α” value in the data set on BV-2 microglial cells (LPS-induced BV-2 cells, western blot) is “prominently reduced”. For the same compound, in the data set on BV-2 microglial cells (LPS-stimulated BV-2 cells, 20 µM, vs LPS-treated control cells), the “secretion of IL-1β, IL-6, and TNF-α” value is “significant inhibitory effects”. In addition, the “expression of synapsin-1 and synaptophysin in hippocampus” value in data set [2] was “significant increase”. The compound also showed a half-life in data set [3] (SD, rat, plasma, intramuscular, 6 mg/kg, rats) of approximately 30 h. The compound also displayed an AUC(0-inf) in data set [3] (setting [5]) of 5200 ± 4000 ng·h/mL. In data set [3] (setting [5]), the time of peak concentration (Tmax) turned out to be 4 h. The exposure AUC(0-t) in data set [3] (male, SD, im, rat plasma, 6 mg/kg intramuscular, 0.5-168 hr) is 4890 ± 3740 ng·h/mL. Besides, the Cmax in data set [3] (male, SD, rat, plasma, im, 6 mg/kg, rat plasma, 6 mg/kg intramuscular, read-out: Cmax) was determined as 120 ± 12.8 ng/mL; in data set [3] (rat plasma, 6 mg/kg intramuscular, 6 mg/kg), 120.19 ng/mL. The “accumulation after multiple-dose administration” value in data set [3] (rats, repeated intramuscular dosing) is listed as “no apparent accumulation”. Further, the concentration at 24 h in data set [4] stood at 5.24 ± 1.81 ng/mL. The IC50 with N2a cell line is 20 µM.

For the compound Hydroxyapatite [HAP], the “cell viability / cytotoxicity” value in the data set with L929 cell line is reported as “no notable disparities in cell viability”.

In general, half-life refers to the time needed for the level to fall by half in the phase considered. A low value points to rapid decline. Broadly, the AUC(0-inf) is the area under the concentration-time curve extrapolated to infinity. High values mean high exposure, low ones low exposure. A word on the Tmax: it is the time from dosing to the highest level. One may read the AUC(0-t) as the area under the concentration-time curve up to a stated or last time point. A low value points to low exposure. For orientation: Cmax means the highest concentration seen after dosing.

Source of the values: paper PMC10557233, “Controlled release of Clenbuterol from a hydroxyapatite carrier for the treatment of Alzheimer’s Disease” (Biomaterials Research, 2023).
